{"source": "paper PMC4279419", "about": "“Angiostatic, tumor inflammatory and anti-tumor effects of CXCL4^47–70 and CXCL4L1^47–70 in an EGF-dependent breast cancer model” (Oncotarget, 2014)", "key": {"[1]": {"test_system": "human retinal microvascular endothelial cells (HMVEC)", "test": "HMVEC MTT proliferation assay", "type": "cell-based", "settings": "control PI=1, 3 to 4 days, MTT, mean ± s.e.m.; for Proliferation index (PI), baseline (single stimulus): no growth factor", "description": "First, HMVEC and HLEC were seeded at 5 × 10^3 cells/well in EBM-2 + 1% FCS in a 96-well plate, whereas MDA-MB-231 were starved of growth factors overnight by replacing their growth medium with DMEM (serum-free) prior to seeding the tumor cells at 15 × 10^2 cells/well in DMEM + 1% FCS. As for the rest of the assay, the same protocol applies to all cells. Once adherent, cells were incubated with different concentrations of the peptides CXCL4^47–70 and CXCL4L1^47–70 as single stimuli or in combination with recombinant human EGF (3 ng/ml; R&D Systems, Minneapolis, MN) at 37°C/5% CO2. All conditions were tested in triplicate or quadruplicate. After 3 to 4 days, stimulation medium was removed and a sterile MTT solution was added [0.04 g/100 ml thiazolyl blue (Sigma-Aldrich, St. Louis, MO) in 20% PBS/80% RPMI without phenol red (Lonza)] for 3 to 4 hours. The formed formasan crystals were dissolved by replacing the MTT solution with acidic propanol (0.04 M HCl, 0.1% (v/v) Nondet P-40 in absolute isopropanol) and shaking the plate, shielded from light, for 10 minutes. Optical density (OD) was determined at 570 nm and 630 nm. The obtained ODs were processed to proliferation indexes (PI), expressed relative to appropriate buffer controls, i.e. ΔOD570–630X over ΔOD570–630CO."}, "[2]": {"test_system": "CD31-positive vessels of MDA-MB-231 tumors", "test": "CD31 immunohistochemistry of resected tumors (vascularization)", "type": "in vivo, mice", "settings": "2.5 μg intratumoral 3×/week; data not shown", "description": "The impact of peptide treatment on the tumor vasculature was evaluated by quantification of immunohistochemically stained CD31-positive vessels. […] This inconsistency between our observations in vitro and in vivo evokes the question which alternative mechanisms may contribute to the anti-tumoral impact of peptide treatment as evidenced in the MDA-MB-231 tumor model."}, "CXCR3A": {"test_system": "CXCR3A", "test": "Calcium signaling in CXCR3A-transfectants", "type": "cell-based", "settings": "CHO/CXCR3A, one representative experiment out of three; for calcium signal via CXCR3A: 2 μg/ml, fura 2, spectrofluorometer; for inhibition of CXCL10-induced calcium signaling (desensitization): peptide 2 μg/ml, CXCL10 5 ng/ml added 100 s later, fura 2", "text": "We further tried to reveal the mode of action of CXCL4^47–70 and CXCL4L1^47–70. First, we excluded that either peptide still binds/activates one of the CXCR3 isoforms, the receptors for intact CXCL4 and CXCL4L1. […]\ninhibit signaling by intact CXCL10. To study interaction of CXCL447–70 and CXCL4L147–70 with CXCR3A, CHO cells stably transfected with CXCR3A were loaded with the fluorescent dye fura 2 (Struyf et al. J. Immunol. 2009, 182:666). Changes in the intracellular Ca2+ concentrations ([Ca2+]i) in response to CXCL447–70 or CXCL4L147–70 treatment were monitored using a spectrofluorometer. The line in the spectra indicates the fluorescence intensity ratio (i.e. the fluorescence intensity measured after excitation at 340 nm divided by the fluorescence intensity measured after excitation at 380 nm). The results shown (one representative experiment out of three) illustrate a desensitization experiment, in which CHO/CXCR3A cells were stimulated first with a peptide (2 µg/ml) and 100 s later with intact CXCL10 […]\npeptides induced a rise in [Ca2+]i. When the cells were stimulated with 5 ng/ml intact CXCL10 100 s after peptide treatment, the response […]\ninteract with CXCR3A. Arrows indicate the time of addition of the stimulus.\n(also on this page, place not known: www.impactjournals.com/oncotarget/ Oncotarget, Supplementary Materials 2014 CXCL4 47–70 CXCL4L1 47–70 CXCL4 47–70 CXCL4L1 47–70 CXCL4 47–70) […]"}, "CCL5": {"test_system": "CCL5", "test": "CCL5 binding (heterodimerization) assay in 96-well plates", "parameters": "species or system human", "settings": "biotinylated peptides; 37 °C; 50 ng/ml CCL5 coated; OD450; n=3", "description": "GAG, EGF and CCL5 binding were quantified in 96-well plates following a similar protocol. GAG binding was evaluated by immobilizing low molecular weight heparin (Iduron, Manchester, UK) on EpranEx plates (BD Biosciences), whereas EGF as well as CCL5 recombinant human protein (R&D Systems and PeproTech, respectively) was immobilized on high protein-binding ELISA plates (Corning life sciences, Tewksbury, MA). In brief, 25 μg/ml GAG [diluted in assay buffer 100 mM NaCl, 50 mM NaAc, pH 7.2, and 0.2% (v/v) Tween-20], 2 μg/ml EGF or 50 ng/ml CCL5 (both diluted in PBS), was coated overnight at room temperature on 96-well plates. Plates were washed three times with either assay buffer or 0.5% (v/v) Tween 20 in PBS and blocked at 37°C with buffer enriched with either 0.2% (w/v) gelatin (heparin binding assay) or 0.1% (w/v) casein (EGF or CCL5 binding assay). Subsequently, a dilution curve of biotinylated CXCL4L1^47–70 and CXCL4^47–70 peptide was pipetted on the plate and incubated at 37 °C to allow interaction with heparin, EGF or CCL5. After washing, retained biotinylated peptide was detected by peroxidase-conjugated streptavidin. Peroxidase activity was quantified by measuring the conversion of 3,3′,5,5′-tetramethylbenzidine (Sigma-Aldrich) at 450 nm."}, "[3]": {"settings": "peptide 0.3 μg/ml + EGF 3 ng/ml, n=7, p=0.015 (CXCL4^47–70), p=0.041 (CXCL4L1^47–70) versus EGF"}, "[4]": {"settings": "peptide 1 μg/ml + EGF 3 ng/ml, n=7, p=0.003 (CXCL4^47–70), p=0.015 (CXCL4L1^47–70) versus EGF"}, "[5]": {"settings": "peptide 1 μg/ml, n=8, p=0.011 (CXCL4^47–70), p=0.043 (CXCL4L1^47–70)"}, "[6]": {"settings": "peptide 3 μg/ml + EGF 3 ng/ml, n=6, p=0.008 (CXCL4^47–70), n=7, p=0.041 (CXCL4L1^47–70) versus EGF"}, "[7]": {"settings": "peptide 3 μg/ml, n=6, p=0.001 (CXCL4^47–70), n=7, p=0.009 (CXCL4L1^47–70)"}}, "note": "Where no end group is shown, it is not given here.", "data": [{"substance": "CXCL4L1^47–70: synthetic human carboxy-terminal peptide restricted to the last 24 amino acids of CXCL4L1, Fmoc chemistry", "values": [{"measurement": "Proliferation index (PI), EGF-stimulated", "setting": "[1]; [3]", "result": "1.17 ± 0.06"}, {"measurement": "Proliferation index (PI), EGF-stimulated", "setting": "[1]; [4]", "result": "1.05 ± 0.07"}, {"measurement": "Proliferation index (PI), baseline (single stimulus)", "setting": "[1]; [5]", "result": "0.86 ± 0.12"}, {"measurement": "Proliferation index (PI), EGF-stimulated", "setting": "[1]; [6]", "result": "0.98 ± 0.13"}, {"measurement": "Proliferation index (PI), baseline (single stimulus)", "setting": "[1]; [7]", "result": "0.70 ± 0.09"}, {"measurement": "vascularization of resected tumors (CD31-positive vessels)", "setting": "[2]", "result": "neither CXCL4^47–70, nor CXCL4L1^47–70 was reflected by a reduced vascularization"}, {"measurement": "calcium signal via CXCR3A", "setting": "CXCR3A", "result": "Nor could we detect any calcium signal"}, {"measurement": "calcium signal via CXCR3A", "setting": "CXCR3A; listed as CXCL4L147–70", "result": "do not induce calcium signaling via CXCR3A"}, {"measurement": "inhibition of CXCL10-induced calcium signaling (desensitization)", "setting": "CXCR3A", "result": "neither peptide (2 μg/ml) was capable of inhibiting calcium signaling"}, {"measurement": "inhibition of CXCL10-induced calcium signaling (desensitization)", "setting": "CXCR3A; listed as CXCL4L147–70", "result": "equal to the signal obtained after buffer stimulation"}, {"measurement": "binding to CCL5-coated plate", "setting": "CCL5", "result": "directly and equally well interacted with CCL5"}]}, {"substance": "CXCL4^47–70: synthetic human carboxy-terminal peptide restricted to the last 24 amino acids of CXCL4, Fmoc chemistry (NGRKICLDLQAPLYKKIIKKLLES; not fully specified (N-terminus))", "values": [{"measurement": "Proliferation index (PI), EGF-stimulated", "setting": "[1]; [3]", "result": "1.13 ± 0.07"}, {"measurement": "Proliferation index (PI), EGF-stimulated", "setting": "[1]; [4]", "result": "0.96 ± 0.06"}, {"measurement": "Proliferation index (PI), baseline (single stimulus)", "setting": "[1]; [5]", "result": "0.77 ± 0.08"}, {"measurement": "Proliferation index (PI), EGF-stimulated", "setting": "[1]; [6]", "result": "0.93 ± 0.07"}, {"measurement": "Proliferation index (PI), baseline (single stimulus)", "setting": "[1]; [7]", "result": "0.59 ± 0.09"}, {"measurement": "vascularization of resected tumors (CD31-positive vessels)", "setting": "[2]", "result": "neither CXCL4^47–70, nor CXCL4L1^47–70 was reflected by a reduced vascularization"}, {"measurement": "calcium signal via CXCR3A", "setting": "CXCR3A", "result": "Nor could we detect any calcium signal"}, {"measurement": "calcium signal via CXCR3A", "setting": "CXCR3A; listed as CXCL447–70", "result": "do not induce calcium signaling via CXCR3A"}, {"measurement": "inhibition of CXCL10-induced calcium signaling (desensitization)", "setting": "CXCR3A", "result": "neither peptide (2 μg/ml) was capable of inhibiting calcium signaling"}, {"measurement": "inhibition of CXCL10-induced calcium signaling (desensitization)", "setting": "CXCR3A; listed as CXCL447–70", "result": "equal to the signal obtained after buffer stimulation"}, {"measurement": "binding to CCL5-coated plate", "setting": "CCL5", "result": "directly and equally well interacted with CCL5"}]}]}
